From ChEMBL document CHEMBL3885861, “Open TG-GATES”

Species on record: Rattus norvegicus
Experiment: Open TG-GATES - Regimen: Daily Repeat
Type: toxicity, organism-based, Sprague-Dawley
Parameters: regimen Daily Repeat, gender Male, age 6 weeks
Details: in vivo, po, route gavage; for APTT / Bas / Eos / Fbg / Hb / Ht / Lym / MCH / MCHC / MCV / Mono / Neu / PT / Plat / RBC / Ret / WBC: tissue Blood; for KIDNEY_L / KIDNEY_R / KIDNEY_TOTAL: tissue Kidney; for LIVER: tissue Liver; for A/G / ALP / ALT / AST / BUN / CRE / Ca / Cl / DBIL / GLC / IP / K / LDH / Na / PL / RALB / TBIL / TC / TG / TP / gamma-GTP: tissue Plasma
[1] = 0 mg/kg, 72 h, dose level Control, time 3 day
[2] = 0 mg/kg, […], dose level Control, time 7 day
[3] = 0 mg/kg, […], dose level Control, time 14 day
[4] = 0 mg/kg, […], dose level Control, time 28 day
[5] = 3 mg/kg, 72 h, dose level Low, time 3 day
[6] = 3 mg/kg, […], dose level Low, time 7 day
[7] = 3 mg/kg, […], dose level Low, time 14 day
[8] = 3 mg/kg, […], dose level Low, time 28 day

Nc1c2c(nc3ccccc13)CCCC2 [TACRINE]
TERMINAL_BW [1]: 222.7 g
APTT [1]: 21.1 s
Bas [1]: 0%
Eos [1]: 1.2%
Fbg [1]: 304 mg/dL
Hb [1]: 13.6 g/dL
Ht [1]: 38.7%
Lym [1]: 80%
MCH [1]: 21.1 pg
MCHC [1]: 35%
MCV [1]: 60.4 fL
Mono [1]: 3%
Neu [1]: 14.8%
PT [1]: 16.8 s
Plat [1]: 125.8 x10_4/uL
RBC [1]: 641.8 x10_4/ul
Ret [1]: 6.4%
WBC [1]: 108.4 x10_2/uL
KIDNEY_L [1]: 0.9 g
KIDNEY_R [1]: 1 g
KIDNEY_TOTAL [1]: 1.9 g
LIVER [1]: 10.2 g
A/G [1]: 1.3
ALP [1]: 1665.8 IU/L
ALT [1]: 51.6 IU/L
AST [1]: 79 IU/L
BUN [1]: 17.4 mg/dL
CRE [1]: 0.2 mg/dL
Ca [1]: 10.9 mg/dL
Cl [1]: 107.2 meq/L
DBIL [1]: 0.002 mg/dL
GLC [1]: 200.2 mg/dL
IP [1]: 7.4 mg/dL
K [1]: 4.4 meq/L
LDH [1]: 264 IU/L
Na [1]: 142.8 meq/L
PL [1]: 158.4 mg/dL
RALB [1]: 3.1 g/dL
TBIL [1]: 0.01 mg/dL
TC [1]: 72.8 mg/dL
TG [1]: 132.8 mg/dL
TP [1]: 5.6 g/dL
gamma-GTP [1]: 1 IU/L
TERMINAL_BW [2]: 252.2 g
TERMINAL_BW [3]: 300.3 g
TERMINAL_BW [4]: 378.9 g
APTT [2]: 21.6 s
Bas [2]: 0%
Eos [2]: 1%
Fbg [2]: 289 mg/dL
Hb [2]: 13.5 g/dL
Ht [2]: 38.4%
Lym [2]: 85%
MCH [2]: 21.2 pg
MCHC [2]: 35.2%
MCV [2]: 60.1 fL
Mono [2]: 2.2%
Neu [2]: 11%
PT [2]: 16.3 s
Plat [2]: 122.6 x10_4/uL
RBC [2]: 639.4 x10_4/ul
Ret [2]: 5.5%
WBC [2]: 142.5 x10_2/uL
APTT [3]: 23 s
Bas [3]: 0%
Eos [3]: 0.8%
Fbg [3]: 323 mg/dL
Hb [3]: 15.4 g/dL
Ht [3]: 42.9%
Lym [3]: 79.6%
MCH [3]: 21.2 pg
MCHC [3]: 36%
MCV [3]: 58.8 fL
Mono [3]: 2.6%
Neu [3]: 16.4%
PT [3]: 15.6 s
Plat [3]: 117.8 x10_4/uL
RBC [3]: 728.8 x10_4/ul
Ret [3]: 4%
WBC [3]: 91.1 x10_2/uL
APTT [4]: 23.1 s
Bas [4]: 0%
Eos [4]: 1%
Fbg [4]: 321 mg/dL
Hb [4]: 15.6 g/dL
Ht [4]: 41.5%
Lym [4]: 83.4%
MCH [4]: 20.8 pg
MCHC [4]: 37.6%
MCV [4]: 55.3 fL
Mono [4]: 1.6%
Neu [4]: 13%
PT [4]: 16 s
Plat [4]: 115 x10_4/uL
RBC [4]: 752 x10_4/ul
Ret [4]: 2.9%
WBC [4]: 108.3 x10_2/uL
KIDNEY_L [2]: 1.1 g
KIDNEY_R [2]: 1.1 g
KIDNEY_TOTAL [2]: 2.1 g
KIDNEY_L [3]: 1.2 g
KIDNEY_R [3]: 1.2 g
KIDNEY_TOTAL [3]: 2.3 g
KIDNEY_L [4]: 1.4 g
KIDNEY_R [4]: 1.4 g
KIDNEY_TOTAL [4]: 2.9 g
LIVER [2]: 11.2 g
LIVER [3]: 12.4 g
LIVER [4]: 15.5 g
A/G [2]: 1.2
ALP [2]: 1508 IU/L
ALT [2]: 36 IU/L
AST [2]: 67.6 IU/L
BUN [2]: 16.8 mg/dL
CRE [2]: 0.2 mg/dL
Ca [2]: 10.5 mg/dL
Cl [2]: 107.4 meq/L
DBIL [2]: 0 mg/dL
GLC [2]: 191.6 mg/dL
IP [2]: 7.1 mg/dL
K [2]: 4.2 meq/L
LDH [2]: 172.8 IU/L
Na [2]: 142 meq/L
PL [2]: 153.8 mg/dL
RALB [2]: 2.9 g/dL
TBIL [2]: 0.016 mg/dL
TC [2]: 77.6 mg/dL
TG [2]: 110 mg/dL
TP [2]: 5.4 g/dL
gamma-GTP [2]: 1 IU/L
A/G [3]: 1.3
ALP [3]: 1565.4 IU/L
ALT [3]: 40 IU/L
AST [3]: 72 IU/L
BUN [3]: 20.6 mg/dL
CRE [3]: 0.2 mg/dL
Ca [3]: 10.7 mg/dL
Cl [3]: 108 meq/L
DBIL [3]: 0 mg/dL
GLC [3]: 192.8 mg/dL
IP [3]: 6.3 mg/dL
K [3]: 4.1 meq/L
LDH [3]: 184.8 IU/L
Na [3]: 142.2 meq/L
PL [3]: 161.6 mg/dL
RALB [3]: 3.3 g/dL
TBIL [3]: 0.012 mg/dL
TC [3]: 81.8 mg/dL
TG [3]: 123.4 mg/dL
TP [3]: 6 g/dL
gamma-GTP [3]: 1.2 IU/L
A/G [4]: 1.1
ALP [4]: 1179.4 IU/L
ALT [4]: 38.6 IU/L
AST [4]: 61.6 IU/L
BUN [4]: 18.6 mg/dL
CRE [4]: 0.2 mg/dL
Ca [4]: 10.7 mg/dL
Cl [4]: 105.2 meq/L
DBIL [4]: 0 mg/dL
GLC [4]: 191.8 mg/dL
IP [4]: 5.9 mg/dL
K [4]: 4.1 meq/L
LDH [4]: 165.2 IU/L
Na [4]: 141.6 meq/L
PL [4]: 157.6 mg/dL
RALB [4]: 3.2 g/dL
TBIL [4]: 0.006 mg/dL
TC [4]: 75.4 mg/dL
TG [4]: 144.6 mg/dL
TP [4]: 6.2 g/dL
gamma-GTP [4]: 1 IU/L
TERMINAL_BW [5]: 218.9 g
APTT [5]: 21 s
Bas [5]: 0%
Eos [5]: 0.8%
Fbg [5]: 309.2 mg/dL
Hb [5]: 13.8 g/dL
Ht [5]: 39.3%
Lym [5]: 80.2%
MCH [5]: 21 pg
MCHC [5]: 35%
MCV [5]: 60.1 fL
Mono [5]: 2.8%
Neu [5]: 15.2%
PT [5]: 16.1 s
Plat [5]: 115.7 x10_4/uL
RBC [5]: 655.6 x10_4/ul
Ret [5]: 5.8%
WBC [5]: 128.8 x10_2/uL
KIDNEY_L [5]: 0.9 g
KIDNEY_R [5]: 1 g
KIDNEY_TOTAL [5]: 1.9 g
LIVER [5]: 10 g
A/G [5]: 1.3
ALP [5]: 1457.8 IU/L
ALT [5]: 48.6 IU/L
AST [5]: 78.4 IU/L
BUN [5]: 17.8 mg/dL
CRE [5]: 0.2 mg/dL
Ca [5]: 10.8 mg/dL
Cl [5]: 106.8 meq/L
DBIL [5]: 0.004 mg/dL
GLC [5]: 190.2 mg/dL
IP [5]: 7.2 mg/dL
K [5]: 4.2 meq/L
LDH [5]: 313 IU/L
Na [5]: 142 meq/L
PL [5]: 168 mg/dL
RALB [5]: 3.2 g/dL
TBIL [5]: 0.016 mg/dL
TC [5]: 85.6 mg/dL
TG [5]: 111 mg/dL
TP [5]: 5.6 g/dL
gamma-GTP [5]: 1 IU/L
TERMINAL_BW [6]: 247.7 g
TERMINAL_BW [7]: 303.9 g
TERMINAL_BW [8]: 351.6 g
APTT [6]: 21.5 s
Bas [6]: 0%
Eos [6]: 1%
Fbg [6]: 301 mg/dL
Hb [6]: 13.7 g/dL
Ht [6]: 38.9%
Lym [6]: 81.6%
MCH [6]: 21.3 pg
MCHC [6]: 35.3%
MCV [6]: 60.3 fL
Mono [6]: 2.2%
Neu [6]: 14.6%
PT [6]: 16.1 s
Plat [6]: 112.9 x10_4/uL
RBC [6]: 645.2 x10_4/ul
Ret [6]: 6%
WBC [6]: 119.7 x10_2/uL
APTT [7]: 23.3 s
Bas [7]: 0%
Eos [7]: 1%
Fbg [7]: 309.4 mg/dL
Hb [7]: 14.5 g/dL
Ht [7]: 41.1%
Lym [7]: 79.8%
MCH [7]: 21.1 pg
MCHC [7]: 35.4%
MCV [7]: 59.5 fL
Mono [7]: 1.4%
Neu [7]: 17.4%
PT [7]: 15.5 s
Plat [7]: 132.9 x10_4/uL
RBC [7]: 690.8 x10_4/ul
Ret [7]: 4.6%
WBC [7]: 104.3 x10_2/uL
APTT [8]: 23.8 s
Bas [8]: 0%
Eos [8]: 1%
Fbg [8]: 294.8 mg/dL
Hb [8]: 15.6 g/dL
Ht [8]: 42.8%
Lym [8]: 84%
MCH [8]: 20.1 pg
MCHC [8]: 36.5%
MCV [8]: 55.2 fL
Mono [8]: 1.6%
Neu [8]: 12.6%
PT [8]: 16.3 s
Plat [8]: 99.5 x10_4/uL
RBC [8]: 776.2 x10_4/ul
Ret [8]: 2.5%
WBC [8]: 118.7 x10_2/uL
KIDNEY_L [6]: 1 g
KIDNEY_R [6]: 1.1 g
KIDNEY_TOTAL [6]: 2.1 g
KIDNEY_L [7]: 1.2 g
KIDNEY_R [7]: 1.2 g
KIDNEY_TOTAL [7]: 2.4 g
KIDNEY_L [8]: 1.3 g
KIDNEY_R [8]: 1.2 g
KIDNEY_TOTAL [8]: 2.5 g
LIVER [6]: 11 g
LIVER [7]: 13.3 g
LIVER [8]: 13.9 g
A/G [6]: 1.2
ALP [6]: 1691 IU/L
ALT [6]: 37.2 IU/L
AST [6]: 68.2 IU/L
BUN [6]: 18.6 mg/dL
CRE [6]: 0.2 mg/dL
Ca [6]: 10.7 mg/dL
Cl [6]: 108 meq/L
DBIL [6]: 0 mg/dL
GLC [6]: 187.8 mg/dL
IP [6]: 7.4 mg/dL
K [6]: 4.1 meq/L
LDH [6]: 156.8 IU/L
Na [6]: 142.6 meq/L
PL [6]: 158 mg/dL
RALB [6]: 3.1 g/dL
TBIL [6]: 0.028 mg/dL
TC [6]: 81.6 mg/dL
TG [6]: 101.2 mg/dL
TP [6]: 5.7 g/dL
gamma-GTP [6]: 1.6 IU/L
A/G [7]: 1.2
ALP [7]: 1333.2 IU/L
ALT [7]: 39.2 IU/L
AST [7]: 65.2 IU/L
BUN [7]: 18.2 mg/dL
CRE [7]: 0.2 mg/dL
Ca [7]: 10.8 mg/dL
Cl [7]: 107.4 meq/L
DBIL [7]: 0 mg/dL
GLC [7]: 191.6 mg/dL
IP [7]: 6.5 mg/dL
K [7]: 4.2 meq/L
LDH [7]: 164 IU/L
Na [7]: 142 meq/L
PL [7]: 153 mg/dL
RALB [7]: 3.2 g/dL
TBIL [7]: 0.018 mg/dL
TC [7]: 75.6 mg/dL
TG [7]: 121.4 mg/dL
TP [7]: 5.9 g/dL
gamma-GTP [7]: 1.8 IU/L
A/G [8]: 1.1
ALP [8]: 1169.6 IU/L
ALT [8]: 38.2 IU/L
AST [8]: 67.6 IU/L
BUN [8]: 18.8 mg/dL
CRE [8]: 0.2 mg/dL
Ca [8]: 10.3 mg/dL
Cl [8]: 107.6 meq/L
DBIL [8]: 0 mg/dL
GLC [8]: 190.6 mg/dL
IP [8]: 5.9 mg/dL
K [8]: 3.9 meq/L
LDH [8]: 137 IU/L
Na [8]: 142.6 meq/L
PL [8]: 140 mg/dL
RALB [8]: 3.2 g/dL
TBIL [8]: 0.004 mg/dL
TC [8]: 71.8 mg/dL
TG [8]: 98.6 mg/dL
TP [8]: 6 g/dL
gamma-GTP [8]: 1 IU/L
